This note sets out measurements from patent US9458176B2, “Tetrahydroimidazo(1,5-D)[1,4]oxazepine derivative” (Eisai R&D Management Co., Ltd., priority 2013, dated 2016).

What is called pIC50 is the negative decadic logarithm of the IC50, by convention in mol/L. Read a low pIC50 as a large IC50.

pIC50: −log10 of the molar value.

The target of the first assay is human mGluR2 (Homo sapiens (Human), UniProt Q14416). The assay is described as follows: [35S]GTPγS binding assay (Affinity to mGluR2). In kind it is biochemical. The following applies: cell membrane fraction of HEK293 cells stably expressing human mGluR2; glutamic acid 10 μM. The protocol: (Preparation of Cell Membrane Fraction of HEK293 Cells Stably Expressing Human Metabotropic Glutamate Receptor 2 (mGluR2))
Sequence of human mGluR2 (Q14416 19-872): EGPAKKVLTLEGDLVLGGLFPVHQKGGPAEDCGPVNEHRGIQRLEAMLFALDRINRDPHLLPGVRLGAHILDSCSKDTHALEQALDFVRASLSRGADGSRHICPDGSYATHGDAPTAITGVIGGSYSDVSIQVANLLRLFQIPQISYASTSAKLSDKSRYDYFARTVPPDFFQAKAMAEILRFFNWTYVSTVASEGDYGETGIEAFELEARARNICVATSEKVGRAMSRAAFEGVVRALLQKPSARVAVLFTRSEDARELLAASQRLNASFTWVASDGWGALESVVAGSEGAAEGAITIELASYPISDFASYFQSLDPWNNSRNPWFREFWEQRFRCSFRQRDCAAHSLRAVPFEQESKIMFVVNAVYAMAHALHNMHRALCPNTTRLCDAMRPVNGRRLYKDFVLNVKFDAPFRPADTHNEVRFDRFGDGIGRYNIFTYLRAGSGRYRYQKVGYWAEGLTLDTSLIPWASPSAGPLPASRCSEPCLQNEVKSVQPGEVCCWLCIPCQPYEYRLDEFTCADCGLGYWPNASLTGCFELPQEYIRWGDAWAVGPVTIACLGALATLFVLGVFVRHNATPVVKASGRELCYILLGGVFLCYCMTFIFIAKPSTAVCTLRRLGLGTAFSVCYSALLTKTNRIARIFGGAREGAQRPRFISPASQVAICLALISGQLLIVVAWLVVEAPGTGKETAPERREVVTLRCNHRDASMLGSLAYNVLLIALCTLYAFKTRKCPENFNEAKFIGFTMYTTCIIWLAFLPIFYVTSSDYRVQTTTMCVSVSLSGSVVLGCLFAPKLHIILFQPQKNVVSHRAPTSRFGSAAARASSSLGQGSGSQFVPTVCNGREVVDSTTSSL
HEK293 cells stably expressing human mGluR2 and human glutamate transporter SLC1A3 were cultured in a Dulbecco's modified Eagle's medium with 10% fetal bovine serum (50 units/mL of penicillin, 50 μg/mL of streptomycin, 60 μg/mL of geneticin, 400 μg/mL of hygromycin B and 2 mM of glutamine) at 37° C. under 5% CO2. Confluent cell cultures were washed twice with PBS(−), and then scraped off with a cell scraper, and subjected to centrifugal separation at 4° C. and 1500 rpm for 5 minutes for collecting cells. The centrifuged sediment (cell pellet) was homogenized in a 20 mM HEPES buffer containing 10 mM EDTA (pH 7.4) by using sonicator and centrifuged at 4° C. and 1500×g for 30 minutes. The supernatant (soluble fraction) was subjected to the centrifugal separation at 4° C. and 40,000×g for 30 minutes, and thus, insoluble fraction was obtained. After additional centrifugally washing the obtained fraction with 20 mM HEPES buffer containing 10 mM EDTA (pH 7.4), the pellet was centrifugally suspended with a 20 mM HEPES buffer containing 0.1 mM EDTA, and the cell membrane fraction was obtained by the centrifugal separation at 4° C. and 40,000×g for 30 minutes. The thus obtained cell membrane fraction was suspended in a 20 mM HEPES buffer containing 0.1 mM EDTA in a protein concentration of 3 mg/mL, which was stored at −80° C.
([^35S]GTPγS Binding Assay)
The frozen cell membrane fraction prepared as described above was thawed before use, and the resultant was diluted with a buffer for a binding assay (final concentrations: 20 mM HEPES, 100 mM NaCl, 1 mM MgCl2, 3 μM GDP, 300 μg/mL saponin, 0.1% BSA). The compound of each example was added to a cell membrane fraction containing 1.8 to 3 μg/assay of membrane protein on a plate, followed by incubation at room temperature for 30 minutes. Thereafter, with glutamic acid (in a final concentration of 10 μM) added thereto, incubation was performed at room temperature for 15 minutes, and thereafter, [^35S]GTPγS (in a final concentration of 0.8 kBq) and 588 μg WGA-SPA beads were added thereto, followed by incubation at room temperature for 1 hour. After the incubation, the plate was subjected to the centrifugal separation at 2,500 rpm and room temperature, and then, membrane cell binding radioactivity was measured with a top count.
A [^35S]GTPγS binding amount obtained by performing the above-described reaction in the absence of glutamic acid was defined as nonspecific binding, and a difference from a [^35S]GTPγS binding amount obtained in the presence of glutamic acid was defined as specific binding. On the basis of ratios of inhibiting the specific binding at various concentrations of the compounds of the respective examples, inhibition curves were obtained. Concentrations of the compounds of the respective examples at which the specific [^35S]GTPγS binding amount was suppressed by 50% (IC50 values) were calculated on the basis of the inhibition curves and shown in Tables 8 and 9.
In general terms: GTPγS resists hydrolysis and so accumulates on activated G proteins.
In the case of `Cc1cc(-c2nc(-c3ccc(OC(F)(F)F)c(CF)c3)n3c2CCO[C@H](C)C3)ccn1` [Example 39, (R)-3-(3-(fluoromethyl)-4-(trifluoromethoxy)phenyl)-6-methyl-1-(2-methylpyridin-4-yl)-5,6,8,9-tetrahydroimidazo[1,5-d][1,4]oxazepine], the pIC50 is 8.60.
The same measure, in the same setting: in the case of `COc1cc(-c2nc(-c3cc(C)nc(CF)c3)c3n2C[C@@H](C)OCC3)ccc1OC(F)(F)F` [Example 30, (R)-1-(2-(fluoromethyl)-6-methylpyridin-4-yl)-3-(3-methoxy-4-(trifluoromethoxy)phenyl)-6-methyl-5,6,8,9-tetrahydroimidazo[1,5-d][1,4]oxazepine] it was 8.28; in that of `CCOc1cc(-c2nc(-c3cc(C)nc(C)c3)c3n2CCOCC3)ccc1Cl` [Example 102], 7.64.
Same read-out and setting: with `Cc1cc(-c2nc(-c3ccc(OC(F)(F)F)c(F)c3)n3c2CCOCC3)cc(C)n1` [Example 106] the figure was 7.68.
Same read-out and setting: in the case of `Cc1cc(-c2nc(-c3ccc(OCC(F)(F)F)c(F)c3)n3c2CCOCC3)cc(C)n1` [Example 2, 1-(2,6-dimethylpyridin-4-yl)-3-(3-fluoro-4-(2,2,2-trifluoroethoxy)phenyl)-5,6,8,9-tetrahydroimidazo[1,5-d][1,4]oxazepine] it was 7.01; in that of `CCOc1ccc(-c2nc(-c3cc(C)nc(C)c3)c3n2C[C@@H](CF)OCC3)cc1Cl` [Example 37, (S)-3-(3-chloro-4-ethoxyphenyl)-1-(2,6-dimethylpyridin-4-yl)-6-(fluoromethyl)-5,6,8,9-tetrahydroimidazo[1,5-d][1,4]oxazepine], 8.22; in that of `COc1cc(-c2nc(-c3cc(C)nc(C)c3)c3n2C[C@@H](C(F)F)OCC3)ccc1Cl` [Example 79], 7.52.
With `Cc1cc(-c2nc(-c3ccc(OC(F)(F)F)c(Cl)c3)n3c2CCOCC3)cc(C)n1` [Example 112], the pIC50 is 7.75.
On the same count and under the same terms, in the case of `COc1cc(-c2nc(-c3cc(C)nc(C)c3)c3n2C[C@@H](C)OCC3)ccc1C` [Example 53] it was 7.67; in that of `CCOc1cc(-c2nc(-c3ccnc(C)c3)c3n2C[C@@H](C)OCC3)ccc1C(F)(F)F` [Example 83], 8.77; in that of `COc1cc(-c2nc(-c3cc(C)nc(CF)c3)c3n2C[C@@H](C)OCC3)ccc1Cl` [Example 13, (R)-3-(4-chloro-3-methoxyphenyl)-1-(2-(fluoromethyl)-6-methylpyridin-4-yl)-6-methyl-5,6,8,9-tetrahydroimidazo[1,5-d][1,4]oxazepine], 8.24.
Same read-out and setting: in the case of `Cc1cc(-c2nc(-c3ccc(C(F)(F)F)c(F)c3)n3c2CCO[C@H](C)C3)cc(C)n1` [Example 134] it was 7.56; in that of `Cc1cc(-c2nc(-c3ccc(Cl)c(C)c3)n3c2CCO[C@H](C)C3)ccn1` [Example 54], 7.71; in that of `COc1cc(-c2nc(-c3cc(C)nc(C)c3)c3n2C[C@@H](C)OCC3)ccc1C(C)(F)F` [Example 23, (R)-3-(4-(1,1-difluoroethyl)-3-methoxyphenyl)-1-(2,6-dimethylpyridin-4-yl)-6-methyl-5,6,8,9-tetrahydroimidazo[1,5-d][1,4]oxazepine], 7.71.
Same read-out and setting: in the case of `Cc1cc(-c2nc(-c3ccc(F)c(OCC(F)F)c3)n3c2CCOCC3)cc(C)n1` [Example 92] it was 7.02; in that of `COc1cc(-c2nc(-c3cc(C)nc(C)c3)c3n2C[C@@H](CF)OCC3)ccc1C` [Example 71], 7.72; in that of `Cc1cc(-c2nc(-c3ccc(OC(F)F)c(Cl)c3)n3c2CCO[C@H](C)C3)ccn1` [Example 21, (R)-3-(3-chloro-4-(difluoromethoxy)phenyl)-6-methyl-1-(2-methylpyridin-4-yl)-5,6,8,9-tetrahydroimidazo[1,5-d][1,4]oxazepine], 8.12.
Turning to `COc1cc(-c2nc(-c3cc(C)nc(C)c3)c3n2C[C@@H](CF)OCC3)ccc1OC(F)(F)F` [Example 16, (S)-1-(2,6-dimethylpyridin-4-yl)-6-(fluoromethyl)-3-(3-methoxy-4-(trifluoromethoxy)phenyl)-5,6,8,9-tetrahydroimidazo[1,5-d][1,4]oxazepine], the pIC50 is 8.57.
On the same count and under the same terms, in the case of `COc1cc(-c2nc(-c3cc(C)nc(CF)c3)c3n2C[C@@H](C)OCC3)ccc1C` [Example 90] it was 7.90.
Still for that read-out and setting: in the case of `Cc1cc(-c2nc(-c3ccc(Cl)c(F)c3)n3c2CCO[C@H](C)C3)ccn1` [Example 58] it was 7.38; in that of `COc1ccc(-c2nc(-c3cc(C)nc(C)c3)c3n2C[C@@H](C)OCC3)cc1C` [Example 18, (R)-1-(2,6-dimethylpyridin-4-yl)-3-(4-methoxy-3-methylphenyl)-6-methyl-5,6,8,9-tetrahydroimidazo[1,5-d][1,4]oxazepine], 7.91.
The same measure, in the same setting: in the case of `CC[C@@H]1Cn2c(-c3ccc(Cl)c(OC)c3)nc(-c3ccnc(C)c3)c2CCO1` [Example 78] it was 8.42.

The same assay, now with this note: cell membrane fraction of HEK293 cells stably expressing human mGluR2; glutamic acid 10 μM; inhibition of specific [35S]GTPγS binding.
Consider `Cc1cc(-c2nc(-c3ccc(Cl)c(CF)c3)n3c2CCO[C@H](C)C3)cc(C)n1` [Example 238], for which the pIC50 is 7.43.
On the same count and under the same terms, with `Cc1cc(-c2nc(-c3ccc(OC(F)(F)F)c(F)c3)n3c2CCO[C@H](CF)C3)cc(CO)n1` [Example 170] the figure was 7.37; with `Cc1cc(-c2nc(-c3ccc(Cl)c(C(F)(F)F)c3)n3c2CCO[C@H](C)C3)ccn1` [Example 152], 7.84.
The same measure, in the same setting: in the case of `Cc1cc(-c2nc(-c3ccc(OC(F)F)c(CF)c3)n3c2CCO[C@H](C)C3)ccn1` [Example 236] it was 8.54; in that of `COc1ccc(-c2nc(-c3ccnc(C)c3)c3n2C[C@@H](C)OCC3)cc1OC(F)(F)F` [Example 155], 7.72.
Same read-out and setting: with `Cc1cc(-c2nc(-c3ccc(OC(C)C)c(C)c3)n3c2CCO[C@H](C)C3)cc(C)n1` [Example 242] the figure was 8.62; with `Cc1cc(-c2nc(-c3ccc(F)c(OC(F)F)c3)n3c2CCO[C@H](C)C3)ccn1` [Example 185], 7.71; with `Cc1cc(-c2nc(-c3ccc(C)c(OCC4CC4)c3)n3c2CCO[C@H](C)C3)ccn1` [Example 224], 7.30.
`CCOc1ccc(-c2nc(-c3cc(C)nc(C)c3)c3n2C[C@@H](C)OCC3)cc1C` [Example 241] showed a pIC50 of 8.54.
On the same count and under the same terms, in the case of `Cc1cc(-c2nc(-c3ccc(OC(F)F)c(CO)c3)n3c2CCO[C@H](C)C3)ccn1` [Example 237] it was 7.52.
Take `Cc1cc(-c2nc(-c3ccc(OC(F)(F)F)c(F)c3)n3c2CCO[C@H](C)C3)cc(CF)n1` [Example 206]: the pIC50 was 7.73.
The same measure, in the same setting: with `COc1ccc(-c2nc(-c3cc(C)nc(C)c3)c3n2C[C@@H](CF)OCC3)cc1C` [Example 245] the figure was 8.28; with `Cc1cc(-c2nc(-c3ccc(F)c(OC(F)(F)F)c3)n3c2CCO[C@H](C)C3)cc(C)n1` [Example 157], 7.90; with `Cc1cc(-c2nc(-c3ccc(C(F)F)c(Cl)c3)n3c2CCO[C@H](C)C3)cc(C)n1` [Example 146], 7.65.
On the same count and under the same terms, in the case of `CCOc1cc(-c2nc(-c3cc(C)nc(C)c3)c3n2CCOCC3)ccc1CC` [Example 213] it was 7.97; in that of `Cc1cc(-c2nc(-c3ccc(OC(F)(F)F)c(C)c3)n3c2CCO[C@H](CF)C3)ccn1` [Example 162], 8.30; in that of `Cc1cc(-c2nc(-c3ccc(OC(F)(F)F)c(F)c3)n3c2CCO[C@H](CF)C3)cc(C)n1` [Example 165], 8.03.
`COc1cc(-c2nc(-c3cc(C)nc(C(F)F)c3)c3n2C[C@@H](CF)OCC3)ccc1OC(F)F` [Example 193] showed a negative logarithm of the IC50 (pIC50) of 8.05.
The same measure, in the same setting: with `Cc1cc(-c2nc(-c3ccc(OC(F)(F)F)c(C#N)c3)n3c2CCO[C@H](C)C3)ccn1` [Example 169] the figure was 8.34; with `Cc1cc(-c2nc(-c3ccc(C(F)(F)F)c(C)c3)n3c2CCO[C@H](CF)C3)cc(C)n1` [Example 186], 7.71.
Same read-out and setting: with `COc1cc(-c2nc(-c3cc(C)nc(C(F)F)c3)c3n2C[C@@H](C)OCC3)ccc1C(F)F` [Example 189] the figure was 7.82.
On the same count and under the same terms, in the case of `Cc1cc(-c2nc(-c3ccc(OC(F)F)c(C)c3)n3c2CCO[C@H](CF)C3)cc(C(F)F)n1` [Example 188] it was 7.68.
